According to the supplement of paper PMC4862054:

What was measured:
Settings in all cases: incubation time: 72 h
[1] = test system: BT-474; test: normalised response (% of control), CellTiter-Glo; higher = more viable cells (100 = DMSO, 0 = benzethonium chloride kill control)
How it was run: (§1)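 After 72 h with compound in 384-well plates, breast cancer cell lines seeded as 20 µl suspension were read for CellTox Green fluorescence at 485/520 nm. CellTiter-Glo luminescence was then read after 10 min at room temperature. Compound was present at 5 concentrations in 10-fold steps over a 10,000-fold range set per compound, and plates were normalised to 0.1 % DMSO (100) and a positive kill control (0). Values are normalised signals, each at a single concentration.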

[2] = test system: BT-549; test: as above
How it was run: as §1

[3] = test system: CAL-120; test: as above
How it was run: as §1

[4] = test system: CAL-148; test: as above
How it was run: as §1

[5] = test system: CAL-51; test: as above
How it was run: as §1

[6] = test system: CAL-85-1; test: as above
How it was run: as §1

[7] = test system: DU-4475; test: as above
How it was run: as §1

[8] = test system: HCC1143; test: as above
How it was run: as §1

[9] = test system: HCC1599; test: as above
How it was run: as §1

[10] = test system: HCC1937; test: as above
How it was run: as §1

[11] = test system: HDQ-P1; test: as above
How it was run: as §1

[12] = test system: Hs578T; test: as above
How it was run: as §1

[13] = test system: MCF-10A; test: as above
How it was run: as §1

[14] = test system: MDA-MB-231; test: as above
How it was run: as §1

[15] = test system: MDA-MB-436; test: as above
How it was run: as §1

[16] = test system: MDA-MB-453; test: as above
How it was run: as §1

[17] = test system: MDA-MB-468; test: as above
How it was run: as §1

[18] = test system: MFM-223; test: as above
How it was run: as §1

[19] = test system: SK-BR-3; test: as above
How it was run: as §1

[20] = test system: BT-474; test: normalised viability (% of control), CellTiter-Blue; higher = more viable cells (100 = DMSO, 0 = benzethonium chloride kill control)
How it was run: (§2)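 Compound dissolved in 5 µl medium was pre-loaded into 384-well plates, and breast cancer cell lines in 20 µl suspension were seeded on top and incubated 72 h. After adding 2.5 µl CellTiter-Blue reagent for 2 h at 37 °C, fluorescence was read at 560/590 nm. Plates were normalised to vehicle (100) and a positive kill control (0), with Z'-factor quality control. Each value is normalised viability at a single listed concentration from the series.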

[21] = test system: BT-549; test: as above
How it was run: as §2

[22] = test system: CAL-120; test: as above
How it was run: as §2

[23] = test system: CAL-148; test: as above
How it was run: as §2

[24] = test system: CAL-51; test: as above
How it was run: as §2

[25] = test system: CAL-85-1; test: as above
How it was run: as §2

[26] = test system: DU-4475; test: as above
How it was run: as §2

[27] = test system: HCC1143; test: as above
How it was run: as §2

[28] = test system: HCC1599; test: as above
How it was run: as §2

[29] = test system: HCC1937; test: as above
How it was run: as §2

[30] = test system: HDQ-P1; test: as above
How it was run: as §2

[31] = test system: Hs578T; test: as above
How it was run: as §2

[32] = test system: MDA-MB-231; test: as above
How it was run: as §2

[33] = test system: MDA-MB-436; test: as above
How it was run: as §2

[34] = test system: MDA-MB-453; test: as above
How it was run: as §2

[35] = test system: MDA-MB-468; test: as above
How it was run: as §2

[36] = test system: MFM-223; test: as above
How it was run: as §2

[37] = test system: SK-BR-3; test: as above
How it was run: as §2

| SMILES | normalised response [1] | normalised response [2] | normalised response [3] | normalised response [4] | normalised response [5] | normalised response [6] | normalised response [7] | normalised response [8] | normalised response [9] | normalised response [10] | normalised response [11] | normalised response [12] | normalised response [13] | normalised response [14] | normalised response [15] | normalised response [16] | normalised response [17] | normalised response [18] | normalised response [19] | normalised viability [20] | normalised viability [21] | normalised viability [22] | normalised viability [23] | normalised viability [24] | normalised viability [25] | normalised viability [26] | normalised viability [27] | normalised viability [28] | normalised viability [29] | normalised viability [30] | normalised viability [31] | normalised viability [32] | normalised viability [33] | normalised viability [34] | normalised viability [35] | normalised viability [36] | normalised viability [37] |
| --- | --- | --- | --- | --- | --- | --- | --- | --- | --- | --- | --- | --- | --- | --- | --- | --- | --- | --- | --- | --- | --- | --- | --- | --- | --- | --- | --- | --- | --- | --- | --- | --- | --- | --- | --- | --- | --- |
| C[C@]12C=CC(=O)C=C1CC[C@@H]1[C@@H]2C(=O)C[C@@]2(C)[C@H]1CC[C@]2(O)C(=O)CO [Prednisone] (1 nM) | 99.4% | 99.8% | 109% | 106% | 92.7% | 99.1% | 103% | 101% | 100% | 99.9% | 101% | 97.1% | 98.2% | 98.5% | 110% | 111% | 104% | 106% | 109% | 126% | 105% | 84.3% | 101% | 99.5% | 100% | 110% | 92.8% | 113% | 93.5% | 98.1% | 104% | 95.9% | 110% | 103% | 104% | 96.2% | 90.8% |
| CO[C@H]1C[C@@H]2CC[C@@H](C)[C@@](O)(O2)C(=O)C(=O)N2CCCC[C@H]2C(=O)O[C@H]([C@H](C)C[C@@H]2CC[C@@H](O)[C@H](OC)C2)CC(=O)[C@H](C)/C=C(\C)[C@@H](O)[C@@H](OC)C(=O)[C@H](C)C[C@H](C)/C=C/C=C/C=C/1C [Sirolimus] (0.1 nM) | 101% | 89.9% | 94% | 101% | 96.3% | 96.1% | 98.9% | 102% | 108% | 103% | 100% | 102% | 108% | 96.9% | 94.3% | 95% | 93.8% | 100% | 91.1% | 84.2% | 88% | 102% | 105% | 78.8% | 93.9% | 94.8% | 105% | 91.9% | 85.3% | 100% | 74.4% | 85.2% | 103% | 99.4% | 94.3% | 80.3% | 90.8% |
| CN1CCN(c2nc(C3=C(c4c[nH]c5ccccc45)C(=O)NC3=O)c3ccccc3n2)CC1 [Sotrastaurin] (1 nM) | 90.6% | 103% | 97% | 94.8% | 100% | 93% | 97.5% | 89.9% | 89.5% | 99% | 99.8% | 99.2% | 88% | 98% | 94% | 96.9% | 104% | 93% | 93.3% | 116% | 86.1% | 117% | 116% | 97% | 109% | 104% | 131% | 95.2% | 89.5% | 85.2% | 101% | 94.1% | 104% | 102% | 97.7% | 100% | 91.3% |
| CC/C(=C(\c1ccccc1)c1ccc(OCCN(C)C)cc1)c1ccccc1 [Tamoxifen] (1 nM) | 105% | 96.4% | 99% | 103% | 99.3% | 101% | 98.6% | 109% | 94.3% | 102% | 103% | 102% | 111% | 106% | 109% | 110% | 104% | 102% | 103% | 81.7% | 81.6% | 104% | 113% | 90.2% | 110% | 104% | 104% | 84.7% | 88.8% | 105% | 118% | 95.1% | 96% | 107% | 106% | 93.3% | 102% |
| COc1cc2c(N3CCN(C(=O)Nc4ccc(OC(C)C)cc4)CC3)ncnc2cc1OCCCN1CCCCC1 [Tandutinib] (0.1 nM) | 107% | 99.8% | 101% | 102% | 82.2% | 101% | 104% | 97.9% | 113% | 92.9% | 111% | 97.3% | 95.5% | 104% | 97.3% | 96.1% | 104% | 105% | 96.7% | 114% | 111% | 98.7% | 107% | 107% | 101% | 109% | 103% | 98% | 67.1% | 116% | 120% | 85.3% | 104% | 102% | 105% | 96.7% | 106% |
| C[C@@H](C(=O)O)c1ccc(-c2ccccc2)c(F)c1 [Tarenflurbil] (1 nM) | 93.8% | 103% | 98.1% | 98.8% | 83.3% | 91.3% | 95.6% | 94.2% | 113% | 92.7% | 96.8% | 99.1% | 85.5% | 98.1% | 102% | 103% | 97.1% | 93.5% | 84.6% | 114% | 99.2% | 93.7% | 97.1% | 110% | 92.7% | 111% | 108% | 128% | 108% | 85.4% | 101% | 88.8% | 103% | 107% | 107% | 97.5% | 87.9% |
| Cn1nnc2c(C(N)=O)ncn2c1=O [Temozolomide] (1 nM) | 95.4% | 104% | 99.5% | 96.2% | 92.3% | 97.5% | 97.5% | 95% | 90% | 99.3% | 96.3% | 99.8% | 104% | 94.8% | 92.3% | 97.6% | 100% | 94.9% | 98.3% | 86.8% | 100% | 107% | 103% | 95.5% | 103% | 128% | 118% | 109% | 113% | 96.6% | 102% | 93% | 95.7% | 98.1% | 96% | 102% | 126% |
| CC[C@@H]1C(=O)N(C)c2cnc(Nc3ccc(C(=O)N[C@H]4CC[C@H](N5CCN(CC6CC6)CC5)CC4)cc3OC)nc2N1C(C)C [Volasertib] (0.1 nM) | 97.7% | 104% | 98.5% | 93% | 111% | 102% | 95.2% | 90.6% | 96.6% | 98.9% | 93.2% | 105% | 88.1% | 100% | 80.4% | 108% | 97.3% | 96.2% | 103% | 107% | 108% | 92.4% | 110% | 116% | 88.4% | 103% | 96.3% | 88.5% | 101% | 94.3% | 102% | 110% | 117% | 101% | 121% | 92% | 118% |
